One experiment has as its target Histamine H3 receptor (Rattus norvegicus, UniProt Q9QYN8). The experiment in a line: In vitro inhibitory activity against Histamine H3 receptor for K+ evoked depolarization-induced release of [3H]histamine from synaptosomes of rat cerebral cortex. It is filed as subcellular, Brain.
Experiment [1] concerns the target Histamine H3 receptor (Mus musculus) (UniProt P58406). The experiment in a line: In vivo Histamine H3 receptor antagonism, dose required to increase in N-t-methylhistamine levels in Swiss mice brains 90 min after p.o. administration. In kind it is functional, organism-based. To be noted: Brain.

Histamine H3 receptor (Mus musculus), sequence (P58406 whole entry): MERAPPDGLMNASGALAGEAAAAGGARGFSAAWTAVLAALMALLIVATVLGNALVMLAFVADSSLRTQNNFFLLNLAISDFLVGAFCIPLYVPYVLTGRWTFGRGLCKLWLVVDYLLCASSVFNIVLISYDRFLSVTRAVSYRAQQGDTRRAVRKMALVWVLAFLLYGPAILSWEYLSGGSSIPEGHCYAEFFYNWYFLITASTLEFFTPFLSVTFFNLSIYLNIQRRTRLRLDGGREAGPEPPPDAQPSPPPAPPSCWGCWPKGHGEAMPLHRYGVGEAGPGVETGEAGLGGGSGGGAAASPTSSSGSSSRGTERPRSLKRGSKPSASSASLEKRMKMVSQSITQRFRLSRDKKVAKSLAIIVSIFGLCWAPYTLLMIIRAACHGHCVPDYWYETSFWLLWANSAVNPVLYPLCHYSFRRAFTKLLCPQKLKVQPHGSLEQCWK
Histamine H3 receptor, sequence (Q9QYN8 whole entry): as the sequence (P58406 whole entry) above, with A15T, T286A, G290A, H387R, V389I counted along it

With `O=C(CCCO)c1ccc(OCCCc2cnc[nH]2)cc1`, the Ki (as a rule, the dissociation constant of the complex between target and ligand, obtained from inhibition or displacement) at Histamine H3 receptor came out at 30 nM.

As to `CCCCc1ccc(OCCCc2c[nH]cn2)cc1`, the ED50 (usually the dose that gives a 50% effect, or the effect in half of the subjects) in experiment [1] worked out at 0.96 mg/kg.

In experiment [1], `ClCC/C=C/c1ccc(OCCCc2c[nH]cn2)cc1` showed a 50% effective dose (ED50) of 0.72 mg/kg.

`O=C(c1ccc(OCCc2c[nH]cn2)cc1)C1CC1` came in with a Ki at Histamine H3 receptor of 2.1 nM. In addition, the ED50 in experiment [1] was found to be 0.21 mg/kg.

At Histamine H3 receptor, `CCCCc1ccc(OCCCc2cnc[nH]2)cc1` registered a Ki of 60 nM.

Take `OC(c1ccc(OCCCc2c[nH]cn2)cc1)C1CC1` (stereo not given): at Histamine H3 receptor, the inhibition constant (Ki) came to 0.58 nM. Also, the median effective dose (ED50) in experiment [1] is 0.18 mg/kg.

Consider `O/N=C(/c1ccc(OCCCc2c[nH]cn2)cc1)C1CC1`, for which, in experiment [1], the ED50 was 0.21 mg/kg.

`O=C(c1ccc(OCCCCc2cnc[nH]2)cc1)C1CC1`: on Histamine H3 receptor, the affinity, expressed as Ki, was 113 nM. That is a sub-micromolar value.

Turning to `CC(C)(C)CCC#C[C@@H]1C[C@H]1c1c[nH]cn1`, in experiment [1], the ED50 was found to be 0.12 mg/kg.

The compound `O=C(c1ccc(OCc2c[nH]cn2)cc1)C1CC1` registered a Ki on Histamine H3 receptor above 500 nM. The ED50 in experiment [1] is 2.8 mg/kg.

As to `O=C(CCCN1CCCC1)c1ccc(OCCCc2c[nH]cn2)cc1`, in experiment [1], the median effective dose (ED50) is above 10 mg/kg.

As for `O=C(c1ccc(OCCCCc2c[nH]cn2)cc1)C1CC1`, in experiment [1], the 50% effective dose (ED50) is above 10 mg/kg.

For the compound `c1nc(CCCOc2ccc(CC3CC3)cc2)c[nH]1`, in experiment [1], the ED50 was above 10 mg/kg.

`O=C(c1ccc(OCCCc2c[nH]cn2)cc1)C1CC1` came in with a median effective dose (ED50) in experiment [1] of 0.14 mg/kg.

`OCCCC1(c2ccc(OCCCc3c[nH]cn3)cc2)OCCO1` came in with an inhibition constant Ki at Histamine H3 receptor of 40 nM. Further, in experiment [1], the 50% effective dose (ED50) was above 10 mg/kg.

Compound `O=C(CCCO)c1ccc(OCCCc2c[nH]cn2)cc1` displayed a median effective dose (ED50) in experiment [1] above 10 mg/kg.

(Values after ChEMBL document CHEMBL1132788, “Analogues and derivatives of ciproxifan, a novel prototype for generating potent histamine H3-receptor antagonists” (Bioorg Med Chem Lett, 2000).)
